Data set [1] has as its system normal human vascular endothelial cells (NHVEC). The data set can be described thus: Boyden chamber migration assay. The following applies: for cell migration over migration in the presence of media alone / migration response compared to three positive controls (VEGF, PDGF, FGF): 100 ng/ml; for Cell Number per HPF, Chamber 1 / Cell Number per HPF, Chamber 2 / Cell Number per HPF, Chamber 3 / Cell Number per HPF, Mean: 5×10^4 cells per well. Format: cell-based. The method, then:
The effects of TB4 and TA1 on endothelial cell migration were determined. To investigate the possibility that these peptides effect the migration of normal human vascular endothelial cells (NHVEC) in vitro, a Boyden chamber migration assay was performed.
In the experiments of Table 1 and FIG. 1, normal human microvesicular endothelial cells are used at 5×10^4 cells per well. The wells are coated with 100 µg/ml […] Type IV.

For another data set, the system named is endothelial cells. The data set can be described thus: MTT (tetrazolium) endothelial cell proliferation assay. The format is cell-based. The following applies: 10 ng/ml; 4 hours and 24 hours tested. The method, then:
The effects of TB4 and TA1 on endothelial cell proliferation were determined using a MTT (tetrazolium) assay. The results are shown in FIG. 2 for 4 hours and 24 hours and for three concentrations of these peptides, 10 ng/ml, 100 ng/ml, and 1000 ng/ml. […] At a concentration of 10 ng/ml, TB4 and TA1 maximally stimulated cell proliferation approximately 2-fold and 3-fold over that of the control, respectively.

Data set [2] is described as follows: Isoelectric point of the peptide. The format is physicochemical.

No end group written: not given here.

In the case of “Ac-ANKGQAPGEAMKPSFLKEKKEVVERSKEEEGPAKMNLVIEMPKD (Ac-ANKGQAPGEAMKPSFLKEKKEVVERSKEEEGPAKMNLVIEMPKD) [TB4]”, in data set [1], the “cell migration over migration in the presence of media alone” value was “significantly enhanced” and the “migration response compared to three positive controls (VEGF, PDGF, FGF)” value is reported as “heightened responses”.
Regarding “Ac-SDAAVDTSSEITTKDLKEKKEVVEEAEN (Ac-SDAAVDTSSEITTKDLKEKKEVVEEAEN) [TA1, may be derived by cleavage of thymosin]”, in data set [1] (0.1 µg/ml), the “Cell Number per HPF, Chamber 1” value is 38 per HPF; the “Cell Number per HPF, Chamber 2” value came out at 45 per HPF; the “Cell Number per HPF, Chamber 3” value is 33 per HPF; the “Cell Number per HPF, Mean” value is given as 39 per HPF. In data set [1], the “cell migration over migration in the presence of media alone” value is reported as “significantly enhanced” and the “migration response compared to three positive controls (VEGF, PDGF, FGF)” value is reported as “heightened responses”. Also, in data set [1] (0.5 µg/ml), the “Cell Number per HPF, Chamber 1” value worked out at 52 per HPF; the “Cell Number per HPF, Chamber 2” value was 53 per HPF; the “Cell Number per HPF, Chamber 3” value came to 57 per HPF; the “Cell Number per HPF, Mean” value was determined as 54 per HPF. In addition, in data set [1] (1 µg/ml), the “Cell Number per HPF, Chamber 1” value is recorded as 64 per HPF; the “Cell Number per HPF, Chamber 2” value was found to be 69 per HPF; the “Cell Number per HPF, Chamber 3” value amounted to 43 per HPF; the “Cell Number per HPF, Mean” value worked out at 59 per HPF. Further, in data set [1] (5 µg/ml), the “Cell Number per HPF, Chamber 1” value amounted to 35 per HPF; the “Cell Number per HPF, Chamber 2” value is 64 per HPF; the “Cell Number per HPF, Chamber 3” value worked out at 72 per HPF; the “Cell Number per HPF, Mean” value is 57 per HPF. Also, in data set [1] (10 µg/ml), the “Cell Number per HPF, Chamber 1” value came to 51 per HPF; the “Cell Number per HPF, Chamber 2” value is 55 per HPF; the “Cell Number per HPF, Chamber 3” value was found to be 66 per HPF; the “Cell Number per HPF, Mean” value was found to be 57 per HPF. The “concentration of maximal effect on migration” value in data set [1] (dose response) came out at 100 ng/mL. The “maximal stimulation of cell proliferation over that of the control” value with endothelial cells is listed as roughly 3 fold. The isoelectric point in data set [2] is reported as 4.1.
